Source: patent US20100063008A1, “GELATINOUS ELASTOMER COMPOSITIONS” (Silipos, Inc., priority 2008, published 2010)

Columns and labels:
[1] = Exudation of active agents from gel specimens to filter paper discs, quantified by UV, MS, GC and/or HPLC after extraction; format: physicochemical; settings: for Active Agent Transferred from Gel to Filters: 37° C., 0.40 psi; for Total Active Agent Exuded from Gel: cumulative
Description: Sample filter paper discs were placed in contact with gel specimens of same diameter under constant low pressure (0.40 psi. (2.8 Mpa)) at 37° C. Multiple time-controlled exposures of the filter paper to the gel were preformed in succession to same side of gel. Quantification of active agent transferred to the filter paper discs was determined by UV, MS, GC and or HPLC analysis after extraction of active agent from the filter paper. Exudation rates was expressed as μg/unit time per unit surface area.
This compound was then divided into three aliquots' of approximately 10 grams each and poured into a 2.625″ diameter aluminum petri dish and allowed to cool to create individual gel samle discs. Subsequently, absorbent cellulose filter blotter paper was die cut to enough 2.625″ diameter discs to be employed as a wicking media for repeated exposure in direct contact with the gel compound under specific conditions as follows.
(§1) Exposure Conditions: 37-40 deg. C., Sample filter paper discs in contact with gel specimens of same diameter were stacked in […]. aluminum petri dishes, gel specimen diameter 2.625″×0.125″ thick, filter paper disc diameter 2.625″ with another petri dish and a 1 kg dead weight on top of stack. Pressure calculated at ˜0.407 psi. (2.8 Mpa) constant. Two replicates per test condition. Repeat exposures at 3 hours then repeat three exposures of 18 hours each, changing discs but keeping same gel specimen and same side of each gel specimen in contact with each successive filter paper disc sample.
The filter paper disc specimens aa through kk were then sent to an analytical laboratory for HPLC and GC analysis along with a small sample of each individual raw ingredient so that the HPLC and GC equipment could be calibrated for the protocol being employed by the lab. This calibration allowed for determining the maximum recoverable (measurable) amount of each ingredient that could be measured using these techniques and would later be used to correct the data. The analytical laboratory then detected and measured the amount of each of the added active agents that was flushed out of the filter paper discs using wet chemistry techniques known to those skilled in the art.
The analytical data was interpreted, and the amounts of each ingredient which was exuded into each filter paper blotter disc specimen, and subsequently extracted using wet chemistry, were then entered into a data analysis spreadsheet and adjusted based on the Analytical Recovery Rate to determine actual concentration of each ingredient extracted.

[2] = Total weight of exudate (oil) absorbed by filter paper blotter discs and theoretical amount of each ingredient exuded; format: physicochemical
Description: as §1
Data was calculated to determine the total weight of exudate absorbed by each individual sample filter paper blotter disc test specimen. Calculations were then performed based upon the ratios of ingredients in the gel disc formula to determine the theoretical amount of each ingredient that could have been exuded from the oil if the oil contained the same ratio of ingredients as contained in the control oil sample and in the gel.

[3] = Gel Specimen Number 1, 1 h filter exposure, time 0-1 h
[4] = Gel Specimen Number 1, 3 h filter exposure, time 1-4 h
[5] = Gel Specimen Number 1, 18 h filter exposure, time 4-22 h
[6] = Gel Specimen Number 1, 18 h filter exposure, time 22-40 h
[7] = Gel Specimen Number 1, 18 h filter exposure, time 40-58 h
[8] = Gel Specimen Number 1, Time 1 h
[9] = Gel Specimen Number 1, Time 4 h
[10] = Gel Specimen Number 1, Time 22 h
[11] = Gel Specimen Number 1, Time 40 h
[12] = Gel Specimen Number 1, Time 58 h
[13] = Gel Specimen Number 2, 1 h filter exposure, time 0-1 h
[14] = Gel Specimen Number 2, 3 h filter exposure, time 1-4 h
[15] = Gel Specimen Number 2, 18 h filter exposure, time 4-22 h
[16] = Gel Specimen Number 2, 18 h filter exposure, time 22-40 h
[17] = Gel Specimen Number 2, 18 h filter exposure, time 40-58 h
[18] = Gel Specimen Number 2, Time 1 h
[19] = Gel Specimen Number 2, Time 4 h
[20] = Gel Specimen Number 2, Time 22 h
[21] = Gel Specimen Number 2, Time 40 h
[22] = Gel Specimen Number 2, Time 58 h
[23] = Specimen aa, Hours 1, Cummulative Hours 1
[24] = Specimen bb, Hours 1, Cummulative Hours 1
[25] = Specimen cc, Hours 3, Cummulative Hours 4
[26] = Specimen dd, Hours 3, Cummulative Hours 4
[27] = Specimen ee, Hours 18, Cummulative Hours 22
[28] = Specimen ff, Hours 18, Cummulative Hours 22
[29] = Specimen gg, Hours 18, Cummulative Hours 40
[30] = Specimen hh, Hours 18, Cummulative Hours 40
[31] = Specimen ii, Hours 18, Cummulative Hours 58
[32] = Specimen kk, Hours 18, Cummulative Hours 58
[33] = Sample aa, Test Disc 1, Exposed 1 hours
[34] = Sample bb, Test Disc 1 Replicate, Exposed 1 hours
[35] = Sample cc, Test Disc 2, Exposed 3 hours
[36] = Sample dd, Test Disc 2 Replicate, Exposed 3 hours
[37] = Sample ee, Test Disc 3, Exposed 18 hours
[38] = Sample ff, Test Disc 3 Replicate, Exposed 18 hours
[39] = Sample gg, Test Disc 4, Exposed 18 hours
[40] = Sample hh, Test Disc 4 Replicate, Exposed 18 hours
[41] = Sample ii, Test Disc 5, Exposed 18 hours
[42] = Sample kk, Test Disc 5 Replicate, Exposed 18 hours

| Active Agent Transferred from Gel to Filters [1, 3] [μg per filter] | Active Agent Transferred from Gel to Filters [1, 4] [μg per filter] | Active Agent Transferred from Gel to Filters [1, 5] [μg per filter] | Active Agent Transferred from Gel to Filters [1, 6] [μg per filter] | Active Agent Transferred from Gel to Filters [1, 7] [μg per filter] | Total Active Agent Exuded from Gel [1, 8] [µg] | Total Active Agent Exuded from Gel [1, 9] [µg] | Total Active Agent Exuded from Gel [1, 10] [µg] | Total Active Agent Exuded from Gel [1, 11] [µg] | Total Active Agent Exuded from Gel [1, 12] [µg] | Active Agent Transferred from Gel to Filters [1, 13] [μg per filter] | Active Agent Transferred from Gel to Filters [1, 14] [μg per filter] | Active Agent Transferred from Gel to Filters [1, 15] [μg per filter] | Active Agent Transferred from Gel to Filters [1, 16] [μg per filter] | Active Agent Transferred from Gel to Filters [1, 17] [μg per filter] | Total Active Agent Exuded from Gel [1, 18] [µg] | Total Active Agent Exuded from Gel [1, 19] [µg] | Total Active Agent Exuded from Gel [1, 20] [µg] | Total Active Agent Exuded from Gel [1, 21] [µg] | Total Active Agent Exuded from Gel [1, 22] [µg] | Compound | further results |
| --- | --- | --- | --- | --- | --- | --- | --- | --- | --- | --- | --- | --- | --- | --- | --- | --- | --- | --- | --- | --- | --- |
| 3578 | 4193 | 8952 | 8566 | 7193 | 3578 | 7771 | 16723 | 25289 | 32482 | 4855 | 5373 | 8916 | 7446 | 7108 | 4855 | 10229 | 19145 | 26590 | 33699 | Synthetic Menthol [S-Menthol] | Quantitative Analysis - Islechem u-gram extraction [1, 23]: 2970 u-gram; Quantitative Analysis - Islechem u-gram extraction [1, 24]: 4030 u-gram; Quantitative Analysis - Islechem u-gram extraction [1, 25]: 3480 u-gram; Quantitative Analysis - Islechem u-gram extraction [1, 26]: 4460 u-gram; Quantitative Analysis - Islechem u-gram extraction [1, 27]: 7430 u-gram; Quantitative Analysis - Islechem u-gram extraction [1, 28]: 7400 u-gram; Quantitative Analysis - Islechem u-gram extraction [1, 29]: 7110 u-gram; Quantitative Analysis - Islechem u-gram extraction [1, 30]: 6180 u-gram; Quantitative Analysis - Islechem u-gram extraction [1, 31]: 5970 u-gram; Quantitative Analysis - Islechem u-gram extraction [1, 32]: 5900 u-gram; Estimated grams of ingredient exuded (theoretical amount from ratios of ingredients in the gel disc formula) [2, 33]: 0.0022 grams; Estimated grams of ingredient exuded (theoretical amount from ratios of ingredients in the gel disc formula) [2, 34]: 0.0031 grams; Estimated grams of ingredient exuded (theoretical amount from ratios of ingredients in the gel disc formula) [2, 35]: 0.0024 grams; Estimated grams of ingredient exuded (theoretical amount from ratios of ingredients in the gel disc formula) [2, 36]: 0.0035 grams; Estimated grams of ingredient exuded (theoretical amount from ratios of ingredients in the gel disc formula) [2, 37]: 0.0062 grams; Estimated grams of ingredient exuded (theoretical amount from ratios of ingredients in the gel disc formula) [2, 38]: 0.0062 grams; Estimated grams of ingredient exuded (theoretical amount from ratios of ingredients in the gel disc formula) [2, 39]: 0.0064 grams; Estimated grams of ingredient exuded (theoretical amount from ratios of ingredients in the gel disc formula) [2, 40]: 0.0057 grams; Estimated grams of ingredient exuded (theoretical amount from ratios of ingredients in the gel disc formula) [2, 41]: 0.0051 grams; Estimated grams of ingredient exuded (theoretical amount from ratios of ingredients in the gel disc formula) [2, 42]: 0.0051 grams |
| 10 | 11 | 21 | 31 | 15 | 10 | 21 | 42 | 72 | 87 | 12 | 15 | 30 | 21 | 16 | 12 | 27 | 57 | 78 | 94 | O=c1c(O)c(-c2ccc(O)c(O)c2)oc2cc(O)cc(O)c12 [Quercetin] | Quantitative Analysis - Islechem u-gram extraction [1, 23]: 9 u-gram; Quantitative Analysis - Islechem u-gram extraction [1, 24]: 11 u-gram; Quantitative Analysis - Islechem u-gram extraction [1, 25]: 9.4 u-gram; Quantitative Analysis - Islechem u-gram extraction [1, 26]: 13.2 u-gram; Quantitative Analysis - Islechem u-gram extraction [1, 27]: 18.6 u-gram; Quantitative Analysis - Islechem u-gram extraction [1, 28]: 28.6 u-gram; Quantitative Analysis - Islechem u-gram extraction [1, 29]: 27.5 u-gram; Quantitative Analysis - Islechem u-gram extraction [1, 30]: 19 u-gram; Quantitative Analysis - Islechem u-gram extraction [1, 31]: 13.2 u-gram; Quantitative Analysis - Islechem u-gram extraction [1, 32]: 14.2 u-gram; Estimated grams of ingredient exuded (theoretical amount from ratios of ingredients in the gel disc formula) [2, 33]: 0.0009 grams; Estimated grams of ingredient exuded (theoretical amount from ratios of ingredients in the gel disc formula) [2, 34]: 0.0012 grams; Estimated grams of ingredient exuded (theoretical amount from ratios of ingredients in the gel disc formula) [2, 35]: 0.0009 grams; Estimated grams of ingredient exuded (theoretical amount from ratios of ingredients in the gel disc formula) [2, 36]: 0.0014 grams; Estimated grams of ingredient exuded (theoretical amount from ratios of ingredients in the gel disc formula) [2, 37]: 0.0024 grams; Estimated grams of ingredient exuded (theoretical amount from ratios of ingredients in the gel disc formula) [2, 38]: 0.0024 grams; Estimated grams of ingredient exuded (theoretical amount from ratios of ingredients in the gel disc formula) [2, 39]: 0.0025 grams; Estimated grams of ingredient exuded (theoretical amount from ratios of ingredients in the gel disc formula) [2, 40]: 0.0022 grams; Estimated grams of ingredient exuded (theoretical amount from ratios of ingredients in the gel disc formula) [2, 41]: 0.0020 grams; Estimated grams of ingredient exuded (theoretical amount from ratios of ingredients in the gel disc formula) [2, 42]: 0.0020 grams |
| 1005 | 1694 | 4812 | 5165 | 3882 | 1005 | 2699 | 7511 | 12675 | 16558 | 1753 | 2506 | 4847 | 4271 | 3729 | 1753 | 4259 | 9106 | 13376 | 17106 | COC(=O)c1ccccc1O [Methyl Salicylate, reference compound] | Quantitative Analysis - Islechem u-gram extraction [1, 23]: 854 u-gram; Quantitative Analysis - Islechem u-gram extraction [1, 24]: 1490 u-gram; Quantitative Analysis - Islechem u-gram extraction [1, 25]: 1440 u-gram; Quantitative Analysis - Islechem u-gram extraction [1, 26]: 2130 u-gram; Quantitative Analysis - Islechem u-gram extraction [1, 27]: 4090 u-gram; Quantitative Analysis - Islechem u-gram extraction [1, 28]: 4120 u-gram; Quantitative Analysis - Islechem u-gram extraction [1, 29]: 4390 u-gram; Quantitative Analysis - Islechem u-gram extraction [1, 30]: 3630 u-gram; Quantitative Analysis - Islechem u-gram extraction [1, 31]: 3300 u-gram; Quantitative Analysis - Islechem u-gram extraction [1, 32]: 3170 u-gram; Estimated grams of ingredient exuded (theoretical amount from ratios of ingredients in the gel disc formula) [2, 33]: 0.0022 grams; Estimated grams of ingredient exuded (theoretical amount from ratios of ingredients in the gel disc formula) [2, 34]: 0.0031 grams; Estimated grams of ingredient exuded (theoretical amount from ratios of ingredients in the gel disc formula) [2, 35]: 0.0024 grams; Estimated grams of ingredient exuded (theoretical amount from ratios of ingredients in the gel disc formula) [2, 36]: 0.0035 grams; Estimated grams of ingredient exuded (theoretical amount from ratios of ingredients in the gel disc formula) [2, 37]: 0.0062 grams; Estimated grams of ingredient exuded (theoretical amount from ratios of ingredients in the gel disc formula) [2, 38]: 0.0062 grams; Estimated grams of ingredient exuded (theoretical amount from ratios of ingredients in the gel disc formula) [2, 39]: 0.0064 grams; Estimated grams of ingredient exuded (theoretical amount from ratios of ingredients in the gel disc formula) [2, 40]: 0.0057 grams; Estimated grams of ingredient exuded (theoretical amount from ratios of ingredients in the gel disc formula) [2, 41]: 0.0051 grams; Estimated grams of ingredient exuded (theoretical amount from ratios of ingredients in the gel disc formula) [2, 42]: 0.0051 grams |
